Assays:
Novikoff hepatoma = Novikoff hepatoma tumor model in rats, IV infusion, tumor volume; assay type: in vivo, rat; settings: for inhibition of tumor growth if the tumor was relatively small at the beginning of the treatment: Novikoff hepatoma, IV infusion, in some cases apoptosis; for inhibition of the tumor growth (tumor size): subcutaneous Novikoff hepatoma, continuous IV infusion over 10 days, 1.25 mM aminooxyacetate or 10 μM CHBA, beginning with a tumor volume of 1 ml, vs NaCl control
Procedure: As a tumor model, immuno-competent adult rats were used, treated with IV infusion. This animal model provides better correlation to human therapy than immuno-incompetent nude mice, which are commonly used. The animal tests were approved according to paragraph 8 section 1 of the German Animal Protection Act, and were performed according to the recommendations of the Tieraerztliche Vereinigung fuer Tierschutz e.V. (Veterinarians' Association for Animal Protection). Male inbreed rats (Sprague-Dawley, 200-250 g, Charles River, Sulzfeld, Germany) were used as tumor recipients.
Novikoff hepatoma was used as the source of tumor cells. Of several tested, experimentally produced tumors, the Novikoff hepatoma best all requirements of a solid tumor having all signs of malignity and similarity to hepatocellular carcinoma in humans. The Novikoff hepatoma was induced by Alex B. Novikoff in […] by feeding a diet containing 0.06% […] (butter yellow) to female Sprague-Dawley rats (Novikoff B., A transplantable rat liver tumour induced by 4-dimethylaminoazobenzene. Cancer Res. 1951; 17:1010). […] The chromatin structure in the tumor cells appears in an irregular form, and the nuclei are indented, round and oval.
The Deutsches Krebsforschungsinstitut in Heidelberg provided the Novikoff hepatoma cells. The cells were received in Hank's solution and intraperitoneally injected in a sterile manner into a Sprague-Dawley rat for passaging. Within a week, approximately 50 ml hemorrhagic ascites were generated and removed in a sterile manner. The pellet generated after centrifugation at 1,300 rpm for five minutes in a Falcon tube was prepped for further purification of cells from other ascites components by washing with 50 ml Dulbecco's MEM (Gibco BRL, Eggenstein) and centrifugation at 1,300 rpm for five minutes. The supernatant was decanted, and the pellet was mixed in Dulbecco's+40% fetal calf serum (FCS). 0.7 ml cell suspension and 0.7 freezing medium each were filled in Nunc tubes, airtight sealed, pre-cooled for five minutes at −20° C. and for 12 hours at −80° C., and then deep-frozen in liquid nitrogen. The freezing medium was 40% Dulbecco's, 40% FCS and 20% DMSO.
The cells were prepared for the application as follows: after thawing, the pellet was reacted in a Falcon tube with 50 ml of a medium (Dulbecco's+40% FCS), pre-heated to 37° C., and centrifuged for five minutes at 1,300 rpm. […]
After centrifugation and decantation of the supernatant, the pellet was suspended in HBSS, 100 microlitres were sampled with an Eppendorf pipette and counted for determining the number of vital cells after vital staining with erythrosine (BioMed, Munich, Germany) in a Neubauer counting chamber. […]
The tumor size was determined by CT-supported volumetry. […]

Novikoff hepatoma cells = assay: Dose-dependence of proliferation inhibition, cell density of cultivated Novikoff hepatoma cells; assay type: cell-based, rat; settings: four days of cultivation, at higher dosage levels
Procedure: For the experiments, Novikoff hepatoma cells were cultivated in a conventional manner. The control substance contained a solvent without an active ingredient. The other groups received different doses of a respective test compound. After four days of cultivation with or without active ingredient, the cell density was determined using standard methods. In FIG. 2 is shown the dose-dependence of obtained cell densities for aminooxyacetate, in FIG. 3 for CHBA, in FIG. 4 for glycerate-2,3-bisphosphate, and in FIG. 5 for fructose-1,6-bisphosphate.

M2-PK = M2-PK (Homo sapiens, UniProt P14618); settings: known from Eigenbrodt et al. 1992; cited from earlier work
[1] = target: T1, glutamate pyruvate transaminase (Homo sapiens, UniProt P24298); settings: known from Eigenbrodt et al. 1994; cited from earlier work
T1 sequence (P24298 2-496 limits assumed): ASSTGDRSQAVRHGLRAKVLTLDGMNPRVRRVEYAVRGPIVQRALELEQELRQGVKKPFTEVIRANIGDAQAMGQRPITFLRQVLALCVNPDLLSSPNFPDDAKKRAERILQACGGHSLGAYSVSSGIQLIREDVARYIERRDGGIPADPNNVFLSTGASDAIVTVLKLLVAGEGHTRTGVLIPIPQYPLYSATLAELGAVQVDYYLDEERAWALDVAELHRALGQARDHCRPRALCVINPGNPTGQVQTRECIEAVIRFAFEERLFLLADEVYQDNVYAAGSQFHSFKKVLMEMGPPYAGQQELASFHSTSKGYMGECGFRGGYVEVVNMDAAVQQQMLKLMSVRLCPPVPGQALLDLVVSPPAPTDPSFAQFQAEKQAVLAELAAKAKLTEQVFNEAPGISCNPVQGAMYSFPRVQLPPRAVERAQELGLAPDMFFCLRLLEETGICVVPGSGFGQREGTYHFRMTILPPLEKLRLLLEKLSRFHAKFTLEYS

cells = settings: known from Eigenbrodt et al. 1994; cited from earlier work

Sequence of M2-PK (P14618 whole entry, species assumed): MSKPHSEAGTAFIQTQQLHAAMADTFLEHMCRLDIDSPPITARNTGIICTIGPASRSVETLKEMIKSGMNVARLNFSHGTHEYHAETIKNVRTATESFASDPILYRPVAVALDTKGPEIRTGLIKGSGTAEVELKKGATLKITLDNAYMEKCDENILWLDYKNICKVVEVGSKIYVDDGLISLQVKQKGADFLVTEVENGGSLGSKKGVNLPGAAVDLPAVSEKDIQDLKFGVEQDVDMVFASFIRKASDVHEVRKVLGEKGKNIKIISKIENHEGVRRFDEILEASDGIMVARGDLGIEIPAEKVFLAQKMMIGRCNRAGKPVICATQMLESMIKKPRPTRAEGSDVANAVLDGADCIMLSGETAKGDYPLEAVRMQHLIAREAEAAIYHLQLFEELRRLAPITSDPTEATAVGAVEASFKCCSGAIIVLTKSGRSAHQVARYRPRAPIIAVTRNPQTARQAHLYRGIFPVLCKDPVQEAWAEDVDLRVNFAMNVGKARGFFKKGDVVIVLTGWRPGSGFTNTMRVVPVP

Compound: CC(O)=C(C#N)C(=O)Nc1ccc(C(F)(F)F)cc1 [CHBA, 2-cyano-3-hydroxy-but-2-(4-trifluoromethyl-phenyl)-amide]
- inhibition of tumor growth if the tumor was relatively small at the beginning of the treatment (Novikoff hepatoma): practically complete inhibition
- inhibition of the tumor growth (tumor size) (Novikoff hepatoma): substantial inhibition
- inhibition of cell density (proliferation) (Novikoff hepatoma cells): practically complete inhibition

Compound: C[C@H](N)C(=O)O [alanine]
- inhibition of M2-PK (M2-PK): inhibit

Compound: NOCC(=O)O [aminooxyacetate]
- inhibition of tumor growth if the tumor was relatively small at the beginning of the treatment (Novikoff hepatoma): practically complete inhibition
- inhibition of the tumor growth (tumor size) (Novikoff hepatoma): substantial inhibition
- inhibition of cell density (proliferation) (Novikoff hepatoma cells): practically complete inhibition
- inhibition of glutamate pyruvate transaminase [1]: inhibit
- inhibition of the proliferation of cells (cells): can inhibit

Compound: N[C@@H]1CON=C1O [cycloserine, reference compound]
- inhibition of glutamate pyruvate transaminase [1]: inhibit
- inhibition of the proliferation of cells (cells): can inhibit

Compound: O=C(COP(=O)(O)O)[C@@H](O)[C@H](O)[C@H](O)COP(=O)(O)O [fructose-1,6-bisphosphate]
- inhibition of cell density (proliferation) (Novikoff hepatoma cells): practically complete inhibition
- displacement of the dimeric form to the highly active tetrameric form of M2-PK (M2-PK): leads to a displacement of the dimeric form to the highly active tetrameric form

Compound: O=C(O)C(COP(=O)(O)O)OP(=O)(O)O (stereo not drawn) [glycerate-2,3-bisphosphate]
- inhibition of cell density (proliferation) (Novikoff hepatoma cells): practically complete inhibition

Compound: CC(C)C[C@H](N)C(=O)O [leucine]
- inhibition of M2-PK (M2-PK): inhibit

Source: patent publication US20090163591A1, “USE OF SUGAR PHOSPHATES, SUGAR PHOSPHATE ANALOGS, AMINO ACIDS AND/OR AMINO ACID ANALOGS FOR MODULATING THE GLUCOLYSIS-ENZYME COMPLEX, THE MALATE ASPARATE SHUTTLE AND/OR THE TRANSAMINASES” (priority 2001, published 2009)
